We go through 3 compounds from US11890268B2, “Dibenzothiophene derivatives and methods of treating cancer therewith” (Saint Louis University, priority 2018, dated 2024).

A short description of series [1]: Deoxygenation of sulfoxide to sulfide on UV-A exposure in plate well, HPLC. Format: physicochemical. The conditions noted are these: for Sulfide Concentration 30 Minutes After UV Exposure: Table 3; for Sulfide (MA-4) Concentration: addition of drug pre-UV exposure, n = 4. On the procedure:
(§1) MDA-MB-231 breast cancer cells were plated at 10,000 cells/well on three 96 well plates. After 24 hours incubation at 37° C., varying concentrations of MA-3 and MA-4 were added and incubated for 1 hour at 37° C. on only two plates (pre-UV and no UV exposure). One plate with cells were then left at room temperature covered for 30 min (no UV). The second plate (pre-UV) and the third plate (post-UV) were exposed to UV-A in a Luzchem photoreactor with 8 LZC-UVA lamps for 30 min. Varying concentrations of MA-3 and MA-4 were added to post UV exposure plate after irradiation. Plates were then incubated for 24 hours at 37° C. and then a MTS cell viability assay (Promega) was performed. Cell viability assay was run on a Flexstation3 mulitmode plate reader and percent viability was calculated. Statistical analyses were performed using GraphPad Prism program.
The concentrations were determined using HPLC injections on Agilent Technologies 1200 series HPLC—quaternary pump. The experiment was carried out in two trials consisting of duplicate studies.

Series [2] concerns MDA-MB-231 breast cancer cells. In words: MTS cell viability assay with UV-A irradiation. Format: cell-based. The method, then:
as §1

On to `O=S(=O)(Oc1ccccc1)c1ccc2c(c1)c1cc(-c3ccc(-c4ccccc4)cc3)ccc1[s+]2[O-]` (stereo not shown) [Compound 5a], for which the “Sulfide Concentration 30 Minutes After UV Exposure” value in series [1] (starting concentration 10 μM) stood at 3.3 ± 1.4 µM.
Turning to `CC(=O)OCc1ccc2c(c1)c1cc(COC(C)=O)ccc1[s+]2[O-]` [MA-3, 5-oxo-2,8-diacetoxymethyldibenzothiophene], the “% cell viability” value in series [2] (compound added pre-UV exposure, cells irradiated with UV-A) is “decreases % cell viability”; in series [2] (compound added pre-UV exposure, cells irradiated with UV-A, listed as 5-oxo-2,8-diacetoxymethyldibenzothiophene), “a decrease in % cell viability”. Further, the “Sulfide (MA-4) Concentration” value in series [1] (Concentration of MA-3 10 μM) worked out at 9.653 ± 0.170 µM; in series [1] (Concentration of MA-3 100 μM) it was 90.02 ± 4.87 µM. The “Sulfide Concentration 30 Minutes After UV Exposure” value in series [1] (starting concentration 100 μM) is 90 ± 3 µM.
`CC(=O)OCc1ccc2sc3ccc(COC(C)=O)cc3c2c1` [MA-4]: the “% cell viability” value in series [2] (any of the UV-exposure conditions (no UV, pre-UV, post-UV)) was “did not decrease % cell viability”.
